Assay results reported in patent US20150175599A1, “FAAH Inhibitors” (Ironwood Pharmaceuticals, Inc., priority 2010, published 2015).
Read-outs that look alike come from different tables or passages of the source.

Legend:
FAAH = target: T1, FAAH (Homo sapiens, UniProt O00519); test: FAAH inhibition, human brain membrane homogenate assay; type: biochemical
T1 construct: Reactions were initiated by adding 12.5 μg of brain microsome; tissue ABS, Inc; host or cells: human brain cerebral cortex, membrane/microsome fraction pooled from 3 donors
T1 sequence (O00519 1-579): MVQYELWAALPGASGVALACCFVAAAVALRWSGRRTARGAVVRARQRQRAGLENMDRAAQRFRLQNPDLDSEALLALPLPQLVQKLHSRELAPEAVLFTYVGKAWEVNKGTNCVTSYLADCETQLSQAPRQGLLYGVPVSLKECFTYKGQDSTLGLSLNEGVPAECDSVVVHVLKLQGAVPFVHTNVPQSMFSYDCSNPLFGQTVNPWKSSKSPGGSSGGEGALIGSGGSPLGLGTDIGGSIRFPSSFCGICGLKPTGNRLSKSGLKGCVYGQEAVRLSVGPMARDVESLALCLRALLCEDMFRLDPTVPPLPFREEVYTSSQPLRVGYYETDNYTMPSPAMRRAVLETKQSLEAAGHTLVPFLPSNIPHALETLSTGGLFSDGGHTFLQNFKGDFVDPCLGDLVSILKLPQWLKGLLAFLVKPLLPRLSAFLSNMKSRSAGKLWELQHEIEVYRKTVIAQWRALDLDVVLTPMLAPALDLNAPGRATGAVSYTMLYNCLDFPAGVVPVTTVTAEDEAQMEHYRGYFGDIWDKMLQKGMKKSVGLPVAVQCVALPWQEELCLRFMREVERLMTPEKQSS

hERG channel = target: T2, hERG channel (Homo sapiens, UniProt Q12809); test: hERG channel inhibition, automated patch clamp (IonWorks HT, hERG-CHO); type: cell-based; conditions: CHO cells expressing hERG, 600 s incubation; for inhibition at 600 s, 1 µM: 1 μM compound, read-out: hERG Channel Inhibition % (at 1 μM), vehicle-subtracted values; for inhibition at 600 s, 10 µM: 10 μM compound, read-out: hERG Channel Inhibition % (at 10 μM), vehicle-subtracted values
T2 construct: expressed in transfected cells; host or cells: CHO (hERG-CHO), under Geneticin selection
T2 sequence (Q12809 whole entry): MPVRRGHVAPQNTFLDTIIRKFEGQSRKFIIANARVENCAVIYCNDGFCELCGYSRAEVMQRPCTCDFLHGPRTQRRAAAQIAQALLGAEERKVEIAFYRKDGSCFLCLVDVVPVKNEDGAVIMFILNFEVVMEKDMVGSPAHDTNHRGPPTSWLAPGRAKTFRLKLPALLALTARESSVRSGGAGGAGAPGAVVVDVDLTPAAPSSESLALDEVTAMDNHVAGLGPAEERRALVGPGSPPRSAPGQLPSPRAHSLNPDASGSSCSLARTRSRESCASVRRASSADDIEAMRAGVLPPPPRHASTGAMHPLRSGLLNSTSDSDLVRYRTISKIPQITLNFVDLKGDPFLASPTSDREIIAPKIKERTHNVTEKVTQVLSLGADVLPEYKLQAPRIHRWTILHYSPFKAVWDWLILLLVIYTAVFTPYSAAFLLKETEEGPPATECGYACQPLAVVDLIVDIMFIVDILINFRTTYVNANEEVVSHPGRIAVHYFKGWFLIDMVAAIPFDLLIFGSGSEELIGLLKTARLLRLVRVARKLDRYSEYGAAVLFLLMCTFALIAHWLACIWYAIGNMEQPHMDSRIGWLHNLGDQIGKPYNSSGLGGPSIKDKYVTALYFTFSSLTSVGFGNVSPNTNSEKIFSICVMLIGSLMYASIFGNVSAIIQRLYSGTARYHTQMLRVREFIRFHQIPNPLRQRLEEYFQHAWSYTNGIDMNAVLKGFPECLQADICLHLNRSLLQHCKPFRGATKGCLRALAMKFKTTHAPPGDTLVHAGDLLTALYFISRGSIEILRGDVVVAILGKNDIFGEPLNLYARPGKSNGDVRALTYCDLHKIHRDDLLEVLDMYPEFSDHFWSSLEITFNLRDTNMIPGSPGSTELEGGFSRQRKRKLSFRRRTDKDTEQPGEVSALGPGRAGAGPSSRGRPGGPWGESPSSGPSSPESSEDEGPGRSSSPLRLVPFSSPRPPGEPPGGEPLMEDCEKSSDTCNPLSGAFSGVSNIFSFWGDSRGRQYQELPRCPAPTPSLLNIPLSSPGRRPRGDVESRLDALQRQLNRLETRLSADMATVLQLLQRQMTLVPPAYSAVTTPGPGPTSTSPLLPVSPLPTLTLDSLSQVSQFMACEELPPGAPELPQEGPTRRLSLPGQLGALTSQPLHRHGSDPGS
Summary of the method: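 hERG-CHO cells held at 30 °C for 48 h before IonWorks HT patch clamp: from −80 mV to +40 for 2 s, then −50 mV for 2 s tail, repeated three times, before and after 600 s compound exposure. Third-pulse post/pre tail amplitude ratio gave percent inhibition; cells with seal <50 MOhm or tail <250 pA excluded.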

[1] = human brain homogenate, average activity, read-out: Human brain Extract FAAH IC50

SMILES	IC50 (FAAH; [1]) [µM]	inhibition at 600 s, 1 µM (hERG channel) [%]	inhibition at 600 s, 10 µM (hERG channel) [%]	IC50 (FAAH) [µM]
COc1cc(NC(=O)C(=O)c2c(C)n(Cc3ccc(Cl)cc3)c3ccc(OC)nc23)ccn1 [Compound 36, 2-(1-(4-chlorobenzyl)-5-methoxy-2-methyl-1H-pyrrolo[3,2-b]pyridin-3-yl)-N-(2-methoxypyridin-4-yl)-2-oxoacetamide]	< 0.1	< 25	< 25	
COCc1ccc2c(c1)c(C(=O)C(=O)Nc1ccnc(OC)c1)c(C)n2Cc1ccc(Cl)cc1 [Compound 11, 2-(1-(4-chlorobenzyl)-5-(methoxymethyl)-2-methyl-1H-indol-3-yl)-N-(2-methoxypyridin-4-yl)-2-oxoacetamide]	< 0.1	< 25	25 to 50	
COc1cc(NC(=O)C(=O)c2c(C)n(Cc3ccc(Cl)cc3)c3ccc(C(=O)N(C)C)cc23)ccn1 [Compound 6, 1-(4-chlorobenzyl)-3-(2-(2-methoxypyridin-4-ylamino)-2-oxoacetyl)-N,N,2-trimethyl-1H-indole-5-carboxamide]	0.1 to 1	< 25	< 25	
COc1cc(NC(=O)C(=O)c2c(C)n(Cc3ncc(F)cc3F)c3cc(F)c(OC)cc23)ccn1 [Compound 101, 2-(1-((3,5-difluoropyridin-2-yl)methyl)-6-fluoro-5-methoxy-2-methyl-1H-indol-3-yl)-N-(2-methoxypyridin-4-yl)-2-oxoacetamide]	< 0.1	< 25	< 25	
COc1ccc2c(c1)c(C(=O)C(=O)Nc1ccnc(OC)c1)c(C)n2Cc1ccccn1 [Compound 77, 2-(5-methoxy-2-methyl-1-(pyridin-2-ylmethyl)-1H-indol-3-yl)-N-(2-methoxypyridin-4-yl)-2-oxoacetamide]	0.1 to 1	< 25	< 25	
COc1cc(NC(=O)C(=O)c2c(C)n(Cc3ncc(Cl)cc3Cl)c3ccccc23)ccn1 [Compound 31, 2-(1-((3,5-dichloropyridin-2-yl)methyl)-2-methyl-1H-indol-3-yl)-N-(2-methoxypyridin-4-yl)-2-oxoacetamide]	< 0.1	< 25	< 25	
COc1ccc2c(c1)c(C(=O)C(=O)Nc1ccnc(OC)c1)c(C)n2Cc1ncc(Cl)cc1OC [Compound 100, 2-(1-((5-chloro-3-methoxypyridin-2-yl)methyl)-5-methoxy-2-methyl-1H-indol-3-yl)-N-(2-methoxypyridin-4-yl)-2-oxoacetamide]	0.1 to 1	< 25	< 25	
COc1cc(NC(=O)C(=O)c2c(C)n(Cc3ccc(Cl)cc3)c3cc(OC)c(OC)cc23)ccn1 [Compound 44, 2-(1-(4-chlorobenzyl)-5,6-dimethoxy-2-methyl-1H-indol-3-yl)-N-(2-methoxypyridin-4-yl)-2-oxoacetamide]	< 0.1	< 25	< 25	
COc1cc(NC(=O)C(=O)c2c(C)n(Cc3ncc(F)cc3F)c3ccc(C)cc23)ccn1 [Compound 88, 2-(1-((3,5-difluoropyridin-2-yl)methyl)-2,5-dimethyl-1H-indol-3-yl)-N-(2-methoxypyridin-4-yl)-2-oxoacetamide]		< 25	< 25	< 0.1
COc1cc(NC(=O)C(=O)c2c(C)n(Cc3ccc(Cl)cn3)c3ccccc23)ccn1 [Compound 68, 2-(1-((5-chloropyridin-2-yl)methyl)-2-methyl-1H-indol-3-yl)-N-(2-methoxypyridin-4-yl)-2-oxoacetamide]	< 0.1	< 25	< 25	
COc1cc(NC(=O)C(=O)c2c(C)n(Cc3ccc(Cl)cc3)c3ccc([N+](=O)[O-])cc23)ccn1 [Compound 19, 2-(1-(4-chlorobenzyl)-2-methyl-5-nitro-1H-indol-3-yl)-N-(2-methoxypyridin-4-yl)-2-oxoacetamide]	< 0.1	< 25	25 to 50	
COc1ccc(Cn2c(C)c(C(=O)C(=O)Nc3ccnc(OC)c3)c3cc(OC)c(C)cc32)nc1 [Compound 96, 2-(5-methoxy-1-((5-methoxypyridin-2-yl)methyl)-2,6-dimethyl-1H-indol-3-yl)-N-(2-methoxypyridin-4-yl)-2-oxoacetamide]	< 0.1	< 25	< 25	
COc1cc(NC(=O)C(=O)c2c(C)n(Cc3ccc(Cl)cc3)c3cc(F)c(OC)cc23)ccn1 [Compound 72, 2-(1-(4-chlorobenzyl)-6-fluoro-5-methoxy-2-methyl-1H-indol-3-yl)-N-(2-methoxypyridin-4-yl)-2-oxoacetamide]	< 0.1	< 25	25 to 50	
COc1ccc2c(c1)c(C(=O)C(=O)Nc1cc(Cl)nc(OC)c1)c(C)n2Cc1ccc(Cl)cc1 [Compound 47, N-(2-chloro-6-methoxypyridin-4-yl)-2-(1-(4-chlorobenzyl)-5-methoxy-2-methyl-1H-indol-3-yl)-2-oxoacetamide]	< 0.1	< 25	< 25	
COc1cnc2c(c1)c(C(=O)C(=O)Nc1ccnc(OC)c1)c(C)n2Cc1ccc(Cl)cc1Cl [Compound 42, 2-(1-(2,4-dichlorobenzyl)-5-methoxy-2-methyl-1H-pyrrolo[2,3-b]pyridin-3-yl)-N-(2-methoxypyridin-4-yl)-2-oxoacetamide]	< 0.1	< 25	50 to 75	
COc1cc(NC(=O)C(=O)c2c(C)n(Cc3ccc(Cl)cc3)c3cccc(OC)c23)ccn1 [Compound 45, 2-(1-(4-chlorobenzyl)-4-methoxy-2-methyl-1H-indol-3-yl)-N-(2-methoxypyridin-4-yl)-2-oxoacetamide]	< 0.1	< 25	< 25	
COc1cc(NC(=O)C(=O)c2c(C)n(Cc3ncc(Cl)cc3Cl)c3cc(Cl)c(OC)cc23)ccn1 [Compound 70, 2-(6-chloro-1-((3,5-dichloropyridin-2-yl)methyl)-5-methoxy-2-methyl-1H-indol-3-yl)-N-(2-methoxypyridin-4-yl)-2-oxoacetamide]	< 0.1	< 25	< 25	
COc1cc(NC(=O)C(=O)c2c(C)n(Cc3ncc(Cl)cc3F)c3ccc(C)cc23)ccn1 [Compound 33, 2-(1-((5-chloro-3-fluoropyridin-2-yl)methyl)-2,5-dimethyl-1H-indol-3-yl)-N-(2-methoxypyridin-4-yl)-2-oxoacetamide]	< 0.1	< 25	< 25	
COc1cc(NC(=O)C(=O)c2c(C)n(Cc3ccc(Cl)cc3)c3ccc(C(C)=O)cc23)ccn1 [Compound 5, 2-(5-acetyl-1-(4-chlorobenzyl)-2-methyl-1H-indol-3-yl)-N-(2-methoxypyridin-4-yl)-2-oxoacetamide]	< 0.1	< 25	25 to 50	
COc1ccc(Cn2c(C)c(C(=O)C(=O)Nc3ccnc(OC)c3)c3cc(OC)c(F)cc32)nc1 [Compound 32, 2-(6-fluoro-5-methoxy-1-((5-methoxypyridin-2-yl)methyl)-2-methyl-1H-indol-3-yl)-N-(2-methoxypyridin-4-yl)-2-oxoacetamide]	< 0.1	< 25	< 25	
COc1cc(NC(=O)C(=O)c2c(C)n(Cc3ccc(Cl)cc3)c3ccc(NC(C)=O)cc23)ccn1 [Compound 22, 2-(5-acetamido-1-(4-chlorobenzyl)-2-methyl-1H-indol-3-yl)-N-(2-methoxypyridin-4-yl)-2-oxoacetamide]	< 0.1	< 25	< 25	
COc1ccc2c(c1)c(C(=O)C(=O)Nc1ccnc(OC)c1Cl)c(C)n2Cc1ccc(Cl)cc1 [Compound 52, N-(3-chloro-2-methoxypyridin-4-yl)-2-(1-(4-chlorobenzyl)-5-methoxy-2-methyl-1H-indol-3-yl)-2-oxoacetamide]	> 10	< 25	< 25	
COc1ccc2c(c1)c(C(=O)C(=O)Nc1ccnc(OC)c1)c(C)n2Cc1ccncc1 [Compound 16, 2-(5-methoxy-2-methyl-1-(pyridin-4-ylmethyl)-1H-indol-3-yl)-N-(2-methoxypyridin-4-yl)-2-oxoacetamide]	0.1 to 1	< 25	< 25	
